In general, EC50 refers to the concentration needed to bring the measured effect to its halfway point. Usually viability stands for a read-out of living cells in per cent, often relative to untreated cells.

This note sets out measurements from PMC8113459, “Selective inhibition of cullin 3 neddylation through covalent targeting DCN1 protects mice from acetaminophen-induced liver toxicity” (Nature Communications, 2021).

“And” between values parts separate entries of the source, which are not always exact repeats. Equal values may be shown once. Read-outs that look alike come from different tables or passages of the source.

Series [1] has as its system four cancer cell lines. The series is described as follows: Cell viability assay (WST-8), four cancer cell lines. The format is cell-based, human. The settings on record: concentrations up to 1000 nM, 72 h. As for the experimental part: (§1) Cell viability assay was performed as previously described. The effect of DCN1 inhibitors on cell growth was evaluated by a WST-8 [2-(2-methoxy-4-nitrophenyl)-3-(4-nitrophenyl)-5-(2,4-disulfophenyl)-2H-tetrazolium, monosodium salt assay (Dojindo Molecular Technologies, Inc). Cells (2000–3000 cells in each well) were seeded in 96-well tissue culture plates in medium (100 μL) and treated with serial dilution of DCN1 inhibitors for 3 days. At the end of incubation, WST-8 dye (20 μL) was added to each well and incubated for 1–3 h, then the absorbance was measured in a microplate reader (Molecular Devices) at 450 nm. Cell growth inhibition was evaluated as the ratio of the absorbance of the sample to that of the control. The values were inserted into Prism software, and the curves and the EC50 values were produced by Prism software.
(Formazan colour is commonly taken as a measure of viable cells.)

Series [2] deals with KYSE70 cells. The series is described as follows: Cell viability assay (WST-8), KYSE70. The format is cell-based, human. To be noted: for cell viability relative to control: replicates. As for the experimental part: as §1
The nature of series [3]: Cell viability assay (WST-8), KYSE70. The format is cell-based, human. The settings on record: human, KYSE70 cells, replicates, read-out: cell viability relative to control. As for the experimental part: as §1
For series [4], the system named is APAP-induced liver injury. The series is described as follows: APAP-induced liver injury: ROS assay in liver tissue. The format is in vivo, mouse. As for the experimental part:
(§2) The in vivo studies were performed under animal protocols (PRO00007499) and (PRO00006638) approved by the Institutional Animal Care & Use Committee of the University of Michigan, in accordance with the recommendations in the Guide for the Care and Use of Laboratory Animals of the National Institutes of Health. C57BL/6 WT mice (~8 weeks, male, normal chow) were purchased from the Jackson Laboratory and randomly divided into eight groups (8–9 mice per group) treated (IP) as follows: phosphate-buffered saline vehicle once per day for 3 days (G1), APAP alone a single dose at 400 mg/kg on day 1 (G2), DI-1859 alone 25 mg/kg once per day for 3 days (G3), DI-1859 alone 50 mg/kg once per day for 3 days (G4), pretreatment (1 day before the APAP administration) with DI-1859 at 25 mg/kg once per day for 3 days followed with APAP at 400 mg/kg on day (G5), pretreatment (1 day before the APAP administration) with DI-1859 at 50 mg/kg once per day for 3 days followed with APAP at 400 mg/kg on day (G6), APAP a single dose at 400 mg/kg (3 h before the first DI-1859 administration) followed with DI-1859 at 25 mg/Kg once per day for 3 days (G7), and APAP a single dose at 400 mg/kg (3 h before the first DI-1859 administration) followed with DI-1859 at 50 mg/Kg once per day for 3 days (G8).
(§3) To induce acute liver injury, animals received PBS or APAP (400 mg/kg, sigma, A7085) through I.P. injection at 12 p.m. and were sacrificed 48 h afterward. To examine the protective effect of DI-1859 (groups 5 and 6), animals were I.P. injected with compound for 3 consecutive days (9 a.m. on each day, starting 1 day before APAP administration). To examine the restorative effect of DI-1859 (groups 7 and 8), animals were I.P. injected with compound 3 h after APAP administration followed by two additional treatments (9 a.m. on the next 2 days). Body weight and blood glucose level measurement, along with blood sample collection, were performed at 12 p.m. on each day.
Liver samples were homogenized in a lysis buffer and mixed with a dichlorofluorescein diacetate fluorescent probe (DCF, Sigma, D6883) to a final probe concentration of 5 µM for 1 h at 37 °C. DCF fluorescence was measured using a BioTek Synergy 2 Multi-Mode Microplate Reader (485 nm excitation and 527 nm emission).

Series [5] deals with HO-1 mRNA. The series is described as follows: RT-PCR, HO-1 mRNA in THLE2 cells. The format is cell-based, human. The settings on record: for HO-1 mRNA level relative to control: THLE2, 10 nM, replicates. As for the experimental part: Supplementary Figure 23. DI‐1859 increases the mRNA level of NRF2 ta rge te d genes NQO1 and
HO‐1. THLE2 cells we re treated with DI‐1859 at 10 nM fo r 4, 8 and 24 h. Tr e a t e d cells were
harvested and the mRNA level of HO‐1 and NQO1 we re exa m i n e d by RT‐PCR assay. The probes
Scientific (Ann Arbor, MI). Data are presented as mean values with n = 2 independent biological […]

Series [6] concerns APAP-induced liver injury. The series is described as follows: APAP-induced liver injury: alanine aminotransferase (ALT) level. The class given is in vivo, mouse. To be noted: for reduction of the elevated ALT level induced by 400 mg/kg of APAP: 24 h time point. As for the experimental part: as §2, §3
Blood glucose levels were determined using glucometers (Bayer Corp., Pittsburgh, PA). Plasma ALT activity was measured using an ALT reagent set (Pointe Scientific Inc., Canton, MI).

[7] abbreviates: G3: DI-1859 25 mg/kg, qD for 3 days.
Setting [8] is: G4: DI-1859 50 mg/kg, qD for 3 days.
The mark [9] stands for this setting: G5: DI-1859 25 mg/kg qD for 3 days, APAP 400 mg/kg 3 h after the second dose.
The mark [10] stands for this setting: G6: DI-1859 50 mg/kg qD for 3 days, APAP 400 mg/kg 3 h after the second dose.
[11] abbreviates: G7: APAP 400 mg/kg, then DI-1859 25 mg/kg 3 h after APAP and on day 2 and 3.
The mark [12] stands for this setting: G8: APAP 400 mg/kg, then DI-1859 50 mg/kg 3 h after APAP and on day 2 and 3.

As for `C=C(CN1CCOCC1)C(=O)NC[C@@H](NC(=O)[C@H](Cc1nc2ccc(C(C)C)cc2s1)NC(=O)CC)C1CCCCC1` [DI-1548], the “cytotoxicity / cell viability” value in series [1] is “no cytotoxicity”. Moreover, the EC50 in series [2] (Homo sapiens, KYSE-70, 72 h, cell line assigned from panel order, read-out: EC50, cell growth inhibition) is more than 1 µM. Further, the “cell viability relative to control” value in series [2] (conc 10, 72 h) is 103.349 and 104.463; in series [2] (conc 30, 72 h), 98.066 and 96.6942; in series [2] (conc 100, 72 h), 94.5283 and 108.512; in series [2] (conc 300, 72 h) it was 88.5377 and 82.0661; in series [2] (conc 1000, 72 h) it was 64.6226 and 79.9057 and 54.5868. Moreover, the viability at 72 h in series [3] (conc 10, 72 h) was determined as 99.4%; in series [3] (conc 30, 72 h), 104%; in series [3] (conc 100, 72 h), 99.4%; in series [3] (conc 300, 72 h), 94.1%.

In the case of `C=C(CN(C)C)C(=O)NC[C@@H](NC(=O)[C@H](Cc1nc2ccc(C(C)C)cc2s1)NC(=O)CC)C1CCCCC1` [DI-1859], the “ROS level in mouse liver tissue, mean” value was determined as 7.034 A.U./ug in series [4] (setting [7]); 7.229 A.U./ug in series [4] (setting [8]); 10.9296 A.U./ug in series [4] (setting [9]); 8.337 A.U./ug in series [4] (setting [10]); 10.4847 A.U./ug in series [4] (setting [11]); 10.3541 A.U./ug in series [4] (setting [12]). The “ROS level normalised to the mean of G1 (vehicle), mean” value came out at 0.9296 in series [4] (setting [7]); 0.9554 in series [4] (setting [8]); 1.445 in series [4] (setting [9]); 1.102 in series [4] (setting [10]); 1.3857 in series [4] (setting [11]); 1.368 in series [4] (setting [12]). The “effect on the level of reactive oxygen species (ROS)” value in series [4] (prevention and treatment settings) is reported as “effectively reduced the level of reactive oxygen species”. Moreover, the “HO-1 mRNA level relative to control” value in series [5] (4 h (time from row order and b199)) was 1.5 and 1.6; in series [5] (8 h (time from row order and b199)), 1.7 and 1.9; in series [5] (24 h (time from row order and b199)) it was 2.4 and 3.9. Also, the “increase of HO1 mRNA level” value in series [5] (THLE2 liver cells, qRT-PCR) worked out at 3 folds. Further, the “ALT(IU/L) mean” value in series [6] (G3 PBS + Low, Time 0 hr) was 26.4101 IU/L; in series [6] (G3 PBS + Low, Time 24 hr) it was 28.0781 IU/L; in series [6] (G4 PBS + High, Time 0 hr), 28.6341 IU/L; in series [6] (G4 PBS + High, Time 24 hr), 23.9081 IU/L; in series [6] (G5 APAP + Low-pre, Time 0 hr), 32.3717 IU/L; in series [6] (G5 APAP + Low-pre, Time 24 hr), 2856 IU/L. Moreover, the “ALT(IU/L) mean” value in series [6] (G5 APAP + Low-pre, Time 48 hr) is 171.99 IU/L; in series [6] (G6 APAP + H-pre, Time 0 hr), 30.6419 IU/L; in series [6] (G6 APAP + H-pre, Time 24 hr) it was 292.828 IU/L; in series [6] (G6 APAP + H-pre, Time 48 hr), 49.2459 IU/L; in series [6] (G7 APAP + Low-post, Time 0 hr) it was 30.889 IU/L; in series [6] (G7 APAP + Low-post, Time 24 hr) it was 1341.82 IU/L. The “ALT(IU/L) mean” value is recorded as 134.182 IU/L in series [6] (G7 APAP + Low-post, Time 48 hr); 29.1592 IU/L in series [6] (G8 APAP + High-post, Time 0 hr); 1771.79 IU/L in series [6] (G8 APAP + High-post, Time 24 hr); 227.59 IU/L in series [6] (G8 APAP + High-post, Time 48 hr). For the same compound, the “reduction of the elevated ALT level induced by 400 mg/kg of APAP” value in series [6] (prevention setting (G5), 25 mg/kg) was 20%; in series [6] (prevention setting (G6), 50 mg/kg), 90% and > 90%. In addition, the “reduction of the APAP-induced ALT elevations” value in series [6] (treatment setting (G7), 25 mg/kg after APAP) was ~ 50% and 50%; in series [6] (treatment setting (G8), 50 mg/kg after APAP), ~ 50% and 50%.
